ChEMBL document CHEMBL1201862, “PubChem BioAssay data set” (2004)
Activity calls are given as the source filed them.

Columns and labels:
[1] = HIV-1 AD8 envelope cell-cell fusion blockers – cherry-pick, dose response (AID 652062); assay type: functional, cell-based;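 further: luciferase signal from cell-cell fusion driven by HIV-1 clade B AD8 Env; potency is for inhibitors of fusion seen as a drop in luminescence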
[2] = blockers of HIV-1 ZM109 envelope-driven cell-cell fusion – HeLa effector, CEM target cells, luciferase, cherry-pick, dose response (AID 652058); assay type: functional, cell-based;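 further: luciferase signal from HIV-1 Env mediated cell-cell fusion of effector and target cells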
[3] = blockers of HIV-1 envelope-mediated cell-cell fusion – cherry-pick, dose response (AID 652057); assay type: functional, cell-based
[4] = target: FAD-linked sulfhydryl oxidase ALR (Homo sapiens, UniProt P55789); test: ALR-catalysed DTT oxidation blockers – biochemical, H2O2 detection, luminescence, cherry-pick, dose response (AID 493248)
Sequence of FAD-linked sulfhydryl oxidase ALR (P55789 whole entry): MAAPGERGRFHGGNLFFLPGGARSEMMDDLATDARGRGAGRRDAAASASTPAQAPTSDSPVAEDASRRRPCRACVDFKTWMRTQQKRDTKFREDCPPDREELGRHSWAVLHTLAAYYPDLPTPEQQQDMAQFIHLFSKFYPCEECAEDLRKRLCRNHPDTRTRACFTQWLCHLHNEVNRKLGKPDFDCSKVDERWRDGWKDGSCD

H4 = test: Luminescence Cell-Based Dose Response HTS to Identify Activators of 5'UTR Stem-Loop Driven Prion Protein mRNA Translation in H4 Neuroglioblastoma Cells. [Related pubchem assays: 1829 (Project Summary), 1814 (Primary HTS)]; assay type: functional; settings: Homo sapiens
[5] = Luminescence Cell-Based Dose Confirmation HTS to Identify Activators of 5'UTR Stem-Loop Driven Alpha-Synuclein mRNA Translation in H4 Neuroglioblastoma Cells. [Related pubchem assays: 1829 (Project Summary), 1814 (Primary HTS)]; assay type: functional
[6] = target: T1, Calpain-2 catalytic subunit (Sus scrofa, UniProt P43367); test: m-calpain protease blockers, concentration series – biochemical, fluorogenic peptide substrate, dose response (AID 1420); assay type: functional
T1 sequence (P43367 whole entry): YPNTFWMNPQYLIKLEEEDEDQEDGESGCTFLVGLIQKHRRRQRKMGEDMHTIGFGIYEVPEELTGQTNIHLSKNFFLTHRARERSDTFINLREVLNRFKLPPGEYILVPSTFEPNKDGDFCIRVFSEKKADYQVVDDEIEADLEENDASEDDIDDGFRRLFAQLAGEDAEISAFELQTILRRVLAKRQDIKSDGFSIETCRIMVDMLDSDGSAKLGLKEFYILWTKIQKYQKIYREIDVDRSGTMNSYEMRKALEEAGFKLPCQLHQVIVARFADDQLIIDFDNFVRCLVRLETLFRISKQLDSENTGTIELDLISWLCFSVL

[7] = Luminescence Cell-Based Dose Response HTS to Identify Activators of Luciferase Translation or Activity in H4 […] Cells. [Related pubchem assays: 1829 (Project Summary), 1814 (Primary HTS)]; assay type: functional
[8] = target: T2, Carboxy-terminal domain RNA polymerase II polypeptide A small phosphatase 1 (Homo sapiens, UniProt Q9GZU7); test: CTDSP1 inhibitors, concentration-response, biochemical, absorbance readout, ultra-high-throughput screen actives (AID 540297); assay type: functional
T2 sequence (Q9GZU7 whole entry): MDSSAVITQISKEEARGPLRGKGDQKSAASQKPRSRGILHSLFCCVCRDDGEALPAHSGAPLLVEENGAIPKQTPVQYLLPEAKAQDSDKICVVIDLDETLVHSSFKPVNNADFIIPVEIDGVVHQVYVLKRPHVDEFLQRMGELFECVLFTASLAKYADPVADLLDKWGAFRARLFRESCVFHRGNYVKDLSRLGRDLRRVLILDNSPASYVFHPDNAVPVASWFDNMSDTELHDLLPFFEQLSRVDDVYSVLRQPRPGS

[9] = P. falciparum Dd2 growth inhibitors, dose response, SYBR Green, cherry-picked samples (AID 1159567); assay type: functional, cell-based
Protein skinhead-1 = target: T3, Protein skinhead-1 (Caenorhabditis elegans, UniProt P34707); assay type: functional
T3 sequence (P34707 whole entry): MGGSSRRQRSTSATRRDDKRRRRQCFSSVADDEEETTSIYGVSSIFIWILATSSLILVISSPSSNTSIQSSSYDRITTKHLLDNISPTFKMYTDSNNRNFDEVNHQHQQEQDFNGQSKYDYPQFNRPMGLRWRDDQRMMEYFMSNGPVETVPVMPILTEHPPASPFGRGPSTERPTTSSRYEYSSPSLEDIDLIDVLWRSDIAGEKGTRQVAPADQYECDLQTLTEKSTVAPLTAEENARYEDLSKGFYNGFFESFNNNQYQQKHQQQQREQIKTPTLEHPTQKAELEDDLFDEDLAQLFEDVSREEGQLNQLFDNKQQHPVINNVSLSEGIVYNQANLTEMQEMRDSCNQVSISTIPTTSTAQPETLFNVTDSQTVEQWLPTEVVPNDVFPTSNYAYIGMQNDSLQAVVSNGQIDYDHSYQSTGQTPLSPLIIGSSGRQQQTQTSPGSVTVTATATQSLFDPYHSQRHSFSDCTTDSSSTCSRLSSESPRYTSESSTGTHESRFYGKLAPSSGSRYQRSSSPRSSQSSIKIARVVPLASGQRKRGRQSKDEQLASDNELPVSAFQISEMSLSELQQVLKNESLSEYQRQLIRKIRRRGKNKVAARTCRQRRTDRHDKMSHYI

BJ [10] = test: cells; assay type: functional, cell-based; settings: Homo sapiens
[11] = DRD fibroblast viability loss – cell-based, non-viral oncogenic, luminescence, dose response (AID 1934); assay type: functional; settings: Homo sapiens
BJ [12] = test: BJ-TERT-LT-ST fibroblast viability loss – cell-based, RAS-independent, luminescence, dose response (AID 1935); assay type: functional; settings: Homo sapiens;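 further: BJ fibroblasts immortalized with TERT plus LT and ST oncogenes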
BJ [13] = test: BJ-TERT fibroblast viability loss – cell-based, RAS-independent, luminescence, dose response (AID 1933); assay type: functional; settings: Homo sapiens
[14] = target: T4, RNA-binding protein pos-1 (Caenorhabditis elegans, UniProt G5EF15); test: disruptors of C. elegans POS-1 RNA interaction – biochemical, fluorescence polarization, dose response (AID 1964);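 further: purified POS-1 fused to maltose binding protein made in E. coli; potency of compounds blocking POS-1 binding to fluorescent RNA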
T4 sequence (G5EF15 whole entry): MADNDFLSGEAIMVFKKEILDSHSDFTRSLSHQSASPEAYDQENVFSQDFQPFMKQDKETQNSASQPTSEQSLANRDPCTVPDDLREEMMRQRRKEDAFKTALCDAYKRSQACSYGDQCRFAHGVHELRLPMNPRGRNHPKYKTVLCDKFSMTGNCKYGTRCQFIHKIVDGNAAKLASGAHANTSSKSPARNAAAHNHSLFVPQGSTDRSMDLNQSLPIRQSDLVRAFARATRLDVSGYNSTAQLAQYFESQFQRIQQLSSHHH

Large T antigen = Large T antigen (Simian virus 40, UniProt P03070); assay type: functional, Betapolyomavirus macacae;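 further: Confirmatory-stage PubChem screen for compounds that inhibit SV40 T antigen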
Sequence of Large T antigen (P03070 whole entry): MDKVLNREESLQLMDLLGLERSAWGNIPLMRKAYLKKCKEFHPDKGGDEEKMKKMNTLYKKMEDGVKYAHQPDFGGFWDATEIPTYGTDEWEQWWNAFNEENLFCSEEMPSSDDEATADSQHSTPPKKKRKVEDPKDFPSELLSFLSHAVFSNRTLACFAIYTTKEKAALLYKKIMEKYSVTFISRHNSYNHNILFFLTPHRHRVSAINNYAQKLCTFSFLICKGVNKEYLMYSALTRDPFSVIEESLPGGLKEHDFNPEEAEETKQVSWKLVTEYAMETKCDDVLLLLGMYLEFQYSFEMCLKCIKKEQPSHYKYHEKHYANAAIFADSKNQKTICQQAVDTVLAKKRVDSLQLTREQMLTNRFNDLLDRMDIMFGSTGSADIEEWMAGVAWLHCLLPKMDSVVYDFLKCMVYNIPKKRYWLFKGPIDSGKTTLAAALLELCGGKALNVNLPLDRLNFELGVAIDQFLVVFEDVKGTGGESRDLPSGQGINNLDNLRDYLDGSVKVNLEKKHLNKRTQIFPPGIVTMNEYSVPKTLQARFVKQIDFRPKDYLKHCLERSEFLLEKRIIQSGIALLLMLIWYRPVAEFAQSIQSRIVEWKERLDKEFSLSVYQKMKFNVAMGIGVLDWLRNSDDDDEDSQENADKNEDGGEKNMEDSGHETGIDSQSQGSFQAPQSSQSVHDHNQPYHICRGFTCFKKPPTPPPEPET

[15] = target: T5, Zinc finger protein mex-5 (Caenorhabditis elegans, UniProt Q9XUB2); test: potency of MEX-5 RNA-binding blockers – biochemical, C. elegans, fluorescence polarization, dose response (AID 1960)
T5 sequence (Q9XUB2 whole entry): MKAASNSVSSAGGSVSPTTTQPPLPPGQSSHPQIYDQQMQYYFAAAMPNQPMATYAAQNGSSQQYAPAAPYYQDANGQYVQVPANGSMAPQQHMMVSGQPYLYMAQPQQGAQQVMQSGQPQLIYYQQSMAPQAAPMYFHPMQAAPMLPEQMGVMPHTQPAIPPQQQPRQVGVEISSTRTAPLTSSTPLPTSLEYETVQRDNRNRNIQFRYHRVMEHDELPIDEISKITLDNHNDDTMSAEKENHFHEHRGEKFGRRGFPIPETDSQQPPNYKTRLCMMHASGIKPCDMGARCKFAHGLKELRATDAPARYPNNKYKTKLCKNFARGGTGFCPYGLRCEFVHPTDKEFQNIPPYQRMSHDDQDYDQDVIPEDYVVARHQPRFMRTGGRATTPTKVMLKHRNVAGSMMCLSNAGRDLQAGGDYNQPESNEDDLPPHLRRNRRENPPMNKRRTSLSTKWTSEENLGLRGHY

[16] = reduction of Shn3 3'UTR-driven luciferase in osteoblasts – cell-based, Clone20 osteoblasts, firefly luciferase, cherry-picked, dose response (AID 624132); assay type: functional;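 further: firefly luciferase luminescence from reporter carrying the Shn3 3'UTR in osteoblasts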
[17] = loss of viability in HepG2 cells – cell-based, CellTiter-Glo, cherry-picked, cytotoxicity control for Shn3 inhibitor project, dose response (AID 624134); assay type: functional
[18] = non-specific 3'UTR reporter inhibition in Clone20-Shn3RL – cell-based, Renilla luciferase, cherry-picked, counter-screen for Shn3 inhibitor project, dose response (AID 624133); assay type: functional

Compound: C[C@H](CO)N1C[C@H](C)[C@H](CN(C)C(=O)Nc2ccc(F)cc2)OCc2ccccc2-c2c(n(C)c3ccccc23)C1=O
- AC50 [1]: < 0.26 µM (active)
- AC50 [2]: < 0.26 µM (active)
- AC50 [3]: < 0.26 µM (active)

Compound: O=C(O)c1cccc(N/N=C/c2cc(Br)cc(Br)c2O)c1
- AC50 [4]: 1.99 µM (active)

Compound: COC(=O)c1ccc(NC(=O)c2cccc(Cl)c2)o1
- AC50 [4]: 20.9 µM (active)

Compound: NC(=O)c1ccc(-n2nnnc2Oc2ccccc2C(=O)N2CCOCC2)cc1
- EC50 (H4): > 120 µM (not active)
- EC50 [5]: 8.06 µM (active)
- IC50 [6]: 3.94 µM (not active)
- EC50 [7]: 31.4 µM (inconclusive)

Compound: C#Cc1ccc([C@@H]2C=C(C(=O)O)O[C@H](OCC)[C@H]2CCCO)cc1
- IC50 [8]: 4.59 µM (active)

Compound: CC(C)(C)[S@@+]([O-])N1Cc2cc(C(=O)N3CCc4ccccc4C3)nc(-c3cccc(-c4ccncc4)c3)c2[C@H]1CCO
- AC50 [9]: 5.87 µM (active)

Compound: CSc1cccc(NC(=O)CSc2ccc(Cl)cc2)c1
- IC50 [6]: 8.93 µM (not active)

Compound: Cc1ccc(NC(=O)CSc2ccccc2NC(=O)c2ccccc2Cl)cc1Cl
- IC50 [8]: 7.38 µM (active)

Compound: O=[N+]([O-])c1ccc(CSC2=NCCS2)cc1
- AC50 [4]: 5.31 µM (active)

Compound: Cc1ccc(S(=O)(=O)N/N=C/c2ccc(O)c(O)c2)cc1[N+](=O)[O-]
- AC50 [4]: 1.06 µM (active)

Compound: COc1ccc(OCCN(C)C(=O)c2cccc(S(=O)(=O)N(C)c3ccccc3)c2)cc1
- IC50 (Protein skinhead-1): > 100 µM (inactive)

Compound: CCN(CC)c1ccc(/C=N/NC(=O)CNC(=O)c2ccccn2)cc1
- AC50 [4]: 0.91 µM (active)

Compound: Cc1nn2cc(-c3cccc(Cl)c3)cnc2c1Br
- EC50 (BJ [10]): 68.2 µM (active)
- EC50 [11]: 16 µM (active)
- EC50 (BJ [12]): 20.3 µM (active)
- EC50 (BJ [13]): 17.4 µM (active)

Compound: CC1(C(O)(C#CC[N+]2(C)CCCCC2)c2ccccc2)CCCC1 (centres undefined)
- IC50 [8]: 9.1 µM (active)

Compound: Fc1ccc(CSc2nnc(-c3ccco3)o2)cc1
- IC50 (Protein skinhead-1): 30.1 µM (active)

Compound: COc1cccc(NC(=O)CN(C)CC(=O)Nc2ccc(Cl)cc2[N+](=O)[O-])c1
- IC50 [6]: 24 µM (not active)

Compound: Cc1ccc2c(c1)N/C(=C\C(=O)CC(C)C)C(=O)O2
- EC50 [14]: > 300 µM (not active)
- IC50 (Large T antigen): 7.15 µM (active)
- EC50 [15]: > 300 µM (not active)

Compound: CC(C)Cn1c(S)nnc1-c1csc2c1CCCC2
- IC50 [6]: 13.5 µM (not active)

Compound: CN(C)S(=O)(=O)NC(c1ccccc1)c1ccccc1
- IC50 (Protein skinhead-1): > 100 µM (inactive)

Compound: NS(=O)(=O)c1ccc(CCNCc2cc(Br)ccc2OCc2ccccc2F)cc1
- AC50 [16]: 4.65 µM (active)
- AC50 [17]: 36.9 µM (active)
- IC50 [6]: > 50 µM (not active)
- AC50 [18]: 8.75 µM (active)

Compound: Cn1c(/C(C#N)=C(\O)c2ccc([N+](=O)[O-])s2)nc2ccccc21
- IC50 (Protein skinhead-1): > 100 µM (inactive)
